Legend:
Experiment in all cases: Cell proliferation assay
Assay type in all cases: cell-based, Homo sapiens
Huh-1 = settings: Huh-1, liver, hepatocellular carcinoma, 72 hours
Description: (§1) To quantify cell proliferation, either the nuclei of live cells were counted following staining with 4’,6-diamidino-2-phenylindole (DAPI; Sigma-Aldrich, Burlington, MA, USA), or metabolically active cells were detected using a CellTiter-Glo assay (Promega Corporation, Madison, WI, USA). Cells from a range of human and mammalian tumor cell lines (American Type Culture Collection, Manassas, VA, USA) were seeded at 4000 cells per well in 100 μL of culture medium in a 96-well plate and incubated overnight at 37°C with 5% CO2. […] In the DAPI staining method, cells were washed using 1× phosphate-buffered saline (PBS; Gibco Thermo Fisher Scientific, Waltham, MA, USA), fixed with 4% formaldehyde, permeabilized with 0.2% Triton X-100 (Sigma-Aldrich), washed again, and stained with 1 μg/mL DAPI to visualize cell nuclei. Cells were washed with 1× PBS three times, and 100 μL 1× PBS was added to each well. Plates were scanned using an IN Cell Analyzer 2200 (GE Healthcare Life Sciences, Chicago, IL, USA) and the number of cells per well was recorded. In the CellTiter-Glo assay, 60 μL of CellTiter-Glo luminescent solution was added to each well after incubation with the test compounds, and the assay plate was scanned using a Tecan Infinite M1000 PRO microplate reader (Tecan Group AG, Männedorf, Switzerland) to record luminescent signals.

SNU-423 = settings: SNU-423, liver, hepatocellular carcinoma, 72 hours
Description: as §1

MHCC97 = settings: MHCC97, liver, hepatocellular carcinoma, 72 hours
Description: as §1

HT29 = settings: HT29, colon carcinoma, 72 hours
Description: as §1

KP-N-YN = settings: neural, neuroblastoma, 72 hours
Description: as §1

SK-N-SH = settings: brain, neuroblastoma, 72 hours
Description: as §1

HLE = settings: liver, hepatocellular carcinoma, 72 hours
Description: as §1

MCF-7 = settings: MCF-7, breast carcinoma, 72 hours
Description: as §1

NCI-H2228 = settings: NCI-H2228, lung, NSCLC, 72 hours
Description: as §1

NCI-H358 = settings: NCI-H358, lung, NSCLC, 72 hours
Description: as §1

HCCC9810 = settings: HCCC9810, liver, hepatocellular carcinoma, 72 hours
Description: as §1

NCI-H1975 = settings: NCI-H1975, lung, NSCLC, 72 hours
Description: as §1

NCI-H441 = settings: NCI-H441, lung carcinoma, 72 hours
Description: as §1

SNU-387 = settings: SNU-387, liver, hepatocellular carcinoma, 72 hours
Description: as §1

NCI-H520 = settings: NCI-H520, lung carcinoma, 72 hours
Description: as §1

PC-9 = settings: PC-9, lung carcinoma, 72 hours
Description: as §1

HTC116 = settings: HTC116, colorectal carcinoma, 72 hours
Description: as §1

SNU-449 = settings: SNU-449, liver, hepatocellular carcinoma, 72 hours
Description: as §1

HCCLM3 = settings: HCCLM3, liver, hepatocellular carcinoma, 72 hours
Description: as §1

U87-MG = settings: brain, glioblastoma, 72 hours
Description: as §1

A172 = settings: A172, brain, glioblastoma, 72 hours
Description: as §1

LS174T = settings: colon carcinoma, 72 hours
Description: as §1

NCI-H1838 = settings: NCI-H1838, lung, NSCLC, 72 hours
Description: as §1

JHH-7 = settings: JHH-7, liver, hepatocellular carcinoma, 72 hours
Description: as §1

SNU-368 = settings: SNU-368, liver, hepatocellular carcinoma, 72 hours
Description: as §1

MHCC97H = settings: liver, hepatocellular carcinoma, 72 hours
Description: as §1

MCF-10A = settings: breast, non-malignant mammary epithelial, 72 hours
Description: as §1

Hep G2 = settings: Hep G2, liver, hepatocellular carcinoma, 72 hours
Description: as §1

Caco-2 = settings: Caco-2, colorectal carcinoma, 72 hours
Description: as §1

T98G = settings: brain, glioblastoma, 72 hours
Description: as §1

U251 = settings: U251, brain, glioblastoma, 72 hours
Description: as §1

NCI-H1915 = settings: NCI-H1915, lung, NSCLC, 72 hours
Description: as §1

NCI-H292 = settings: NCI-H292, lung, mucoepidermoid pulmonary carcinoma, 72 hours
Description: as §1

COLO 205 = settings: COLO 205, colon carcinoma, 72 hours
Description: as §1

CCN1CCN(Cc2ccc(Nc3ncc(F)c(-c4cc(F)c5nc(C)n(C(C)C)c5c4)n3)nc2)CC1 [Abemaciclib, abemaciclib, reference compound]
IC50 (Huh-1; Homo sapiens): 365 nM | IC50 (SNU-423; Homo sapiens): 48 nM | IC50 (MHCC97; Homo sapiens): 1100 nM | IC50 (HT29; Homo sapiens, HT-29): 1840 nM | IC50 (KP-N-YN; Homo sapiens): 827 nM | IC50 (SK-N-SH; Homo sapiens): 80 nM | IC50 (HLE; Homo sapiens): 389 nM | IC50 (MCF-7; Homo sapiens, MCF7): 6 nM | IC50 (NCI-H2228; Homo sapiens): 2070 nM | IC50 (NCI-H358; Homo sapiens): 44 nM | IC50 (HCCC9810; Homo sapiens): 71 nM | IC50 (NCI-H1975; Homo sapiens): 112 nM | IC50 (NCI-H441; Homo sapiens): 40 nM | IC50 (SNU-387; Homo sapiens): 193 nM | IC50 (NCI-H520; Homo sapiens): 364 nM | IC50 (PC-9; Homo sapiens): 457 nM | IC50 (HTC116; Homo sapiens): 76 nM | IC50 (SNU-449; Homo sapiens): 159 nM | IC50 (HCCLM3; Homo sapiens): 3100 nM | IC50 (U87-MG; Homo sapiens, U-87 MG): 106 nM | IC50 (A172; Homo sapiens, A 172): 112 nM | IC50 (LS174T; Homo sapiens): 96 nM | IC50 (NCI-H1838; Homo sapiens): 90 nM | IC50 (JHH-7; Homo sapiens, JHH7): 1170 nM | IC50 (SNU-368; Homo sapiens): 34 nM | IC50 (MHCC97H; Homo sapiens): 137 nM | IC50 (MCF-10A; Homo sapiens): 1770 nM | IC50 (Hep G2; Homo sapiens, HepG2): 3200 nM | IC50 (Caco-2; Homo sapiens): 395 nM | IC50 (T98G; Homo sapiens): 168 nM | IC50 (U251; Homo sapiens, U-251): 151 nM | IC50 (NCI-H1915; Homo sapiens): 324 nM | IC50 (NCI-H292; Homo sapiens): 149 nM | IC50 (COLO 205; Homo sapiens): 432 nM

CC1=Nc2c(F)cc(-c3nc(Nc4ccc(C5CCN(C)CC5)cn4)ncc3F)cc2C12CCCC2 [GLR2007]
IC50 (Huh-1): 261 nM | IC50 (SNU-423): 19 nM | IC50 (MHCC97): 353 nM | IC50 (HT29): 601 nM | IC50 (KP-N-YN): 657 nM | IC50 (SK-N-SH): 32 nM | IC50 (HLE): 143 nM | IC50 (MCF-7): 2 nM | IC50 (NCI-H2228): 2050 nM | IC50 (NCI-H358): 17 nM | IC50 (HCCC9810): 30 nM | IC50 (NCI-H1975): 10 nM | IC50 (NCI-H441): 7 nM | IC50 (SNU-387): 68 nM | IC50 (NCI-H520): 241 nM | IC50 (PC-9): 180 nM | IC50 (HTC116): 38 nM | IC50 (SNU-449): 67 nM | IC50 (HCCLM3): 1840 nM | IC50 (U87-MG): 16 nM | IC50 (A172): 41 nM | IC50 (LS174T): 160 nM | IC50 (NCI-H1838): 48 nM | IC50 (JHH-7): 578 nM | IC50 (SNU-368): 13 nM | IC50 (MHCC97H): 66 nM | IC50 (MCF-10A): 2730 nM | IC50 (Hep G2): 2550 nM | IC50 (Caco-2): 453 nM | IC50 (T98G): 110 nM | IC50 (U251): 53 nM | IC50 (NCI-H1915): 53 nM | IC50 (NCI-H292): 73 nM | IC50 (COLO 205): 194 nM
